Measured values reported in patent publication US11542259B2, “Compounds for the treatment of kinase-dependent disorders” (Exelixis, Inc., priority 2018, dated 2023).

What was measured:
KDR = KDR (Homo sapiens (Human), UniProt P35968); experiment: KDR autophosphorylation ELISA in HUVEC cells; type: cell-based; conditions: cellular, VEGF165 stimulated
Method in brief: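 Serum-starved (24 h) primary HUVEC were pretreated 1 h with compounds (8-point dilution, 0.3% DMSO final), then stimulated 5 min with 100 ng/mL VEGF165. Lysate phospho-KDR quantified by sandwich ELISA against a phospho-KDR standard; IC50 by 4-parameter fit, normalised to stimulated DMSO and unstimulated controls.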

[1] = biological target: Human Mer (residues R557-E882 with H628Q and R794A) (Homo sapiens (Human), UniProt Q12866); experiment: Human Mer kinase assay (33P radiometric, KinaseProfiler); type: biochemical; conditions: 10 μM ATP
Method: Kinase activity and compound inhibition were investigated using the ^33P-Phosphoryl transfer radiometric kinase assay, performed using the KinaseProfiler™ service of Eurofins Pharma Discovery Services UK Limited. Dose-response experiments were performed using nine compound concentrations in a 96-well microtiter plate. For each assay, all compounds were prepared to a 50× final assay concentration (50 μM) in 100% DMSO, then diluted in a half-log series, with the final top concentration at 1 μM. This working stock of the compound was added to the assay well as the first component in the reaction, followed by the remaining components as detailed in the following assay protocols below. The positive control wells (100% kinase activity) contain all components of the reaction including 2% DMSO (control for solvent effects), except the compound of interest. Blank wells contain all components of the reaction, with the reference inhibitor, staurosporine. This reference compound was used to abolish kinase activity and generated the 0% kinase activity base-line. IC50 values were calculated by nonlinear regression analysis using the sigmoidal dose-response (variable slope) curve fit on XLFit version 5.3 (ID Business Solutions).
Human Mer (residues R557-E882 with H628Q and R794A, 0.7 nM) was incubated with 8 mM MOPS pH 7.0, 0.2 mM EDTA, 30 mM NaCl, 250 μM GGMEDIYFEFMGGKKK (SEO ID NO. 44). 10 mM magnesium acetate, and 10 μM [γ-^33P-ATP]. The reaction was initiated by the addition of the Mg/ATP mix. After incubation for 40 minutes at room temperature, the reaction was stopped by the addition of phosphoric acid to a concentration of 0.5%. A reaction aliquot of 10 μL was then spotted onto a P30 filtermat and washed four times for 4 minutes in 0.425% phosphoric acid and once in methanol prior to drying and scintillation counting. Incorporated ^33P was measured using the Wallac Microbeta scintillation counter (Perkin Elmer).

Met = Met (Homo sapiens (Human), UniProt P08581); experiment: Met autophosphorylation ELISA in PC-3 cells; type: cell-based; conditions: cellular, HGF stimulated, read-out: c-Met IC50
Method in brief: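 Phospho-Met (panTyr) sandwich ELISA on lysates of PC-3 cells given 100 ng/mL HGF for 10 min after 1 h compound exposure (8-point curve, 0.3% DMSO) following 3 h serum starvation. Normalised to HGF-stimulated DMSO and reference-inhibitor wells; 4-parameter logistic IC50.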

KDR, sequence (P35968 20-1356): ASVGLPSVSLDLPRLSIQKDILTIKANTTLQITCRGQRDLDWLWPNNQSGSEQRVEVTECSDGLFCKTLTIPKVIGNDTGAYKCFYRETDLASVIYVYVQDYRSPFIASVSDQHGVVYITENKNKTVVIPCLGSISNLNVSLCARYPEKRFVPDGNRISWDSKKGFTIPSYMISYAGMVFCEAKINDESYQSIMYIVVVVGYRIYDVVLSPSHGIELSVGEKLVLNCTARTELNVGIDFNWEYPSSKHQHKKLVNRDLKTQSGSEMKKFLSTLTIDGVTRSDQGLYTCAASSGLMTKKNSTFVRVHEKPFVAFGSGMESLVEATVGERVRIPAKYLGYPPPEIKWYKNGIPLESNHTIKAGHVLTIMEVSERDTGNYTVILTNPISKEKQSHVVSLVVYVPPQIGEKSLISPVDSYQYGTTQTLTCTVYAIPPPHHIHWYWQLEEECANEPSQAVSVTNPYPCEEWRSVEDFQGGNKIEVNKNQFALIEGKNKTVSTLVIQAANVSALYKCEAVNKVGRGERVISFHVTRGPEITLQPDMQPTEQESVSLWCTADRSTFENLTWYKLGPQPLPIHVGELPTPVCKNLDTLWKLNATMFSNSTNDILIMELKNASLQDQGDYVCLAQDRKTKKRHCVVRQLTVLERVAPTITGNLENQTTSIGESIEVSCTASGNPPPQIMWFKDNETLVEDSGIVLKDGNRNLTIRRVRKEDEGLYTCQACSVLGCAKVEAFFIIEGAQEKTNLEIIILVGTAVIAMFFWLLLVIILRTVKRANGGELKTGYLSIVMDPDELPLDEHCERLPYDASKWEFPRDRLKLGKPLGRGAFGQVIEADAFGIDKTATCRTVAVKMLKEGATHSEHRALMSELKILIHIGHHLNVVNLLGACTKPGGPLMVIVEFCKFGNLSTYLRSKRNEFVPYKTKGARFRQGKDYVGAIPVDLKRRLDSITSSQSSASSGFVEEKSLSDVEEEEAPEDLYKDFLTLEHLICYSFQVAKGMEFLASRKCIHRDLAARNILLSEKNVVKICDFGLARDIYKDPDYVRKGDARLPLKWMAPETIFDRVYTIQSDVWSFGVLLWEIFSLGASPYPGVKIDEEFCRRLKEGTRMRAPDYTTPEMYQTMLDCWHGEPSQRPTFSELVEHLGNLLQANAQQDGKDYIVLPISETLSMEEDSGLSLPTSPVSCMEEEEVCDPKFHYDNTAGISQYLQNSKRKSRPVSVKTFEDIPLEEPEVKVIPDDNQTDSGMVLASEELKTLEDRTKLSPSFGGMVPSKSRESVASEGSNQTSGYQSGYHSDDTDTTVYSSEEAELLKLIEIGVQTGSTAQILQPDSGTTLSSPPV
Met, sequence (P08581 25-1390): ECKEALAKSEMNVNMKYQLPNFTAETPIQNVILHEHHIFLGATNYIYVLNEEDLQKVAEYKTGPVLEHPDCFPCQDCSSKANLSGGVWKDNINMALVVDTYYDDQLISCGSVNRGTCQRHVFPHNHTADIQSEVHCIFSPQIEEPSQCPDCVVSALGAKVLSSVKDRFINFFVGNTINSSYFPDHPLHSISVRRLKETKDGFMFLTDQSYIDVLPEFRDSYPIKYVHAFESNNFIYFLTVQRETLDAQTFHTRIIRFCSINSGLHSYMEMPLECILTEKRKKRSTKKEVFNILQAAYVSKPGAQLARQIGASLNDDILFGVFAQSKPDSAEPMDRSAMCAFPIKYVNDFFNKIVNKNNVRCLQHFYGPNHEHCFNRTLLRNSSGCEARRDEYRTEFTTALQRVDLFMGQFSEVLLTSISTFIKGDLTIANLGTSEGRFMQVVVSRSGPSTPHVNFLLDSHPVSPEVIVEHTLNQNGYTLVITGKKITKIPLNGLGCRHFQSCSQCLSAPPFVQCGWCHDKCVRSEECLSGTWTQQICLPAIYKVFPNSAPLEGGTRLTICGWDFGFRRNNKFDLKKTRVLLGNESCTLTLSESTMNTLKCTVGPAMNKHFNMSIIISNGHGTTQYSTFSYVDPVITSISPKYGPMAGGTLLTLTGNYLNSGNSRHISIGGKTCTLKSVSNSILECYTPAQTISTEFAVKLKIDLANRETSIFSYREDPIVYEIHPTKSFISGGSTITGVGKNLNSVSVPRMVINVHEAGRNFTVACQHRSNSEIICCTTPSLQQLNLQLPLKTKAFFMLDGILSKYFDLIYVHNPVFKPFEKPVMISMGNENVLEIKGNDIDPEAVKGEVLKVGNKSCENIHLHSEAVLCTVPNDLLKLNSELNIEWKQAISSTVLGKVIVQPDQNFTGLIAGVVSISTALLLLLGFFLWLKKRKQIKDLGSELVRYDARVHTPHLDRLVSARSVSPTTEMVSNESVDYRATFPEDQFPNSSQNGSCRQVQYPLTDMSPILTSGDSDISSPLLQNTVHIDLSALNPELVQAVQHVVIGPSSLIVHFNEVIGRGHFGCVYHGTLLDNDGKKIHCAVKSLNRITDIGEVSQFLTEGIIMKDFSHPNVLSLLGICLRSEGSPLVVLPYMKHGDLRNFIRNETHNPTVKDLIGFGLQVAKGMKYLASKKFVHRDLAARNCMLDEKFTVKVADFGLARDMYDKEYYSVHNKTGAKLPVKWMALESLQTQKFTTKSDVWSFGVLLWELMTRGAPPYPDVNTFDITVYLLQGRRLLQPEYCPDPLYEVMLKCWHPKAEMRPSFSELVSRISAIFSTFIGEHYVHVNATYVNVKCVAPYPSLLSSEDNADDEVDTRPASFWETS
Human Mer (residues R557-E882 with H628Q and R794A), sequence (Q12866 557-882, stated change not applied): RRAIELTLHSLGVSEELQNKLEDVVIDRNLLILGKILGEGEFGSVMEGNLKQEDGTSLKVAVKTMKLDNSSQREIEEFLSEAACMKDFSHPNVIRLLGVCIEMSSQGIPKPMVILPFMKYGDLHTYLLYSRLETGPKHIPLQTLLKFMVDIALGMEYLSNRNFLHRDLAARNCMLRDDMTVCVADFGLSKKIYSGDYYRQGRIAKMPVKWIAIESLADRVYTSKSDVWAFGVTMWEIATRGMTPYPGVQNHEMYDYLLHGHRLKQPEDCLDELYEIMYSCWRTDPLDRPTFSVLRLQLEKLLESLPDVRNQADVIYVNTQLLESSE

IC50 (KDR) [µM] | IC50 [1] [µM] | IC50 (Met) [µM] | Compound
≤ 0.01 | ≤ 0.01 | 0.01 to 0.1 | CNC(=O)c1cc2c(Oc3ccc(NC(=O)C4(C(=O)Nc5ccc(F)cc5)CC4)cc3)ccnc2cc1OC [Compound 8, 1-N′-(4-fluorophenyl)-1-N-[4-[7-methoxy-6-(methylcarbamoyl)quinolin-4-yl]oxyphenyl]cyclopropane-1,1-dicarboxamide]
≤ 0.01 |  | 0.01 to 0.1 | CCNC(=O)c1cc2c(Oc3ccc(NC(=O)C4(C(=O)Nc5ccc(F)cc5)CC4)cc3)ccnc2cc1OC [Compound 9, 1-N-[4-[6-(ethylcarbamoyl)-7-methoxyquinolin-4-yl]oxyphenyl]-1-N′-(4-fluorophenyl)cyclopropane-1,1-dicarboxamide]
≤ 0.01 | ≤ 0.01 | 0.01 to 0.1 | COc1cc2nccc(Oc3ccc(NC(=O)C4(C(=O)Nc5ccc(F)cc5)CC4)cc3)c2cc1C(=O)NC1COC1 [Compound 13, 1-N′-(4-fluorophenyl)-1-N-[4-[7-methoxy-6-(oxetan-3-ylcarbamoyl)quinolin-4-yl]oxyphenyl]cyclopropane-1,1-dicarboxamide]
≤ 0.01 |  | 0.01 to 0.1 | CONC(=O)c1cc2c(Oc3ccc(NC(=O)C4(C(=O)Nc5ccc(F)cc5)CC4)cc3)ccnc2cc1OC [Compound 17, 1-N′-(4-fluorophenyl)-1-N-[4-[7-methoxy-6-(methoxycarbamoyl)quinolin-4-yl]oxyphenyl]cyclopropane-1,1-dicarboxamide]

Continued, molecule first:

Compound | IC50 (KDR) [µM] | IC50 [1] [µM] | IC50 (Met) [µM]
COC(=O)c1cc2c(Oc3ccc(NC(=O)C4(C(=O)Nc5ccc(F)cc5)CC4)cc3)ccnc2cc1OC [Compound 5, methyl 4-[4-[[1-[(4-fluorophenyl)carbamoyl]-cyclopropanecarbonyl]amino]-phenoxy]-7-methoxyquinoline-6-carboxylate] | ≤ 0.01 | ≤ 0.01 | 0.01 to 0.1
COc1cc2nccc(Oc3ccc(NC(=O)C4(C(=O)Nc5ccc(F)cc5)CC4)cc3)c2cc1C(N)=O [Compound 7, 1-N-[4-(6-carbamoyl-7-methoxyquinolin-4-yl)oxyphenyl]-1-N′-(4-fluorophenyl)cyclopropane-1,1-dicarboxamide] | ≤ 0.01 | ≤ 0.01 | ≤ 0.01
COc1cc2nccc(Oc3ccc(NC(=O)C4(C(=O)Nc5ccc(F)cc5)CC4)cc3)c2cc1C(=O)NC1CN(C)C1 [Compound 14, 1-N′-(4-fluorophenyl)-1-N-[4-[7-methoxy-6-[(1-methylazetidin-3-yl)carbamoyl]quinolin-4-yl]oxyphenyl]cyclopropane-1,1-dicarboxamide] | 0.01 to 0.1 | ≤ 0.01 | ≤ 0.01
COc1cc2nccc(Oc3ccc(NC(=O)C4(C(=O)Nc5ccc(F)cc5)CC4)cc3)c2cc1C(=O)N1CCC1 [Compound 15, 1-N-[4-[6-(azetidine-1-carbonyl)-7-methoxyquinolin-4-yl]oxyphenyl]-1-N′-(4-fluorophenyl)cyclopropane-1,1-dicarboxamide] | > 0.3 | ≤ 0.01 | 0.1 to 0.3
COc1cc2nccc(Oc3ccc(NC(=O)C4(C(=O)Nc5ccc(F)cc5)CC4)cc3)c2cc1C(=O)N1CC(O)C1 [Compound 16, 1-N′-(4-fluorophenyl)-1-N-[4-[6-(3-hydroxyazetidine-1-carbonyl)-7-methoxyquinolin-4-yl]oxyphenyl]cyclopropane-1,1-dicarboxamide] | 0.1 to 0.3 | ≤ 0.01 | 0.1 to 0.3
COc1cc2nccc(Oc3ccc(NC(=O)C4(C(=O)Nc5ccc(F)cc5)CC4)cc3)c2cc1C#N [Compound 37, 1-N-[4-(6-cyano-7-methoxyquinolin-4-yl)oxyphenyl]-1-N′-(4-fluorophenyl)cyclopropane-1,1-dicarboxamide] | 0.01 to 0.1 | ≤ 0.01 | 0.01 to 0.1
COc1cc2nccc(Oc3ccc(NC(=O)C4(C(=O)Nc5ccc(F)cc5)CC4)cc3)c2cc1-c1ncc[nH]1 [Compound 191, 1-N′-(4-Fluorophenyl)-1-N-[4-[6-(1H-imidazol-2-yl)-7-methoxyquinolin-4-yl]oxyphenyl]cyclopropane-1,1-dicarboxamide] | ≤ 0.01 |  | 0.01 to 0.1
